Tests used:
Assay in all cases: inhibition of [3H]cGMP uptake in OAT2-HEK293 cells
Format in all cases: cell-based
[1] = molecular target: T1, human OAT2 (organic anion transporter 2) (Homo sapiens, UniProt Q9Y694)
T1 construct: gene SLC22A7; full-length human OAT2 stably transfected in HEK293 cells (PortaCellTec Biosciences)
T1 sequence (Q9Y694 1-548): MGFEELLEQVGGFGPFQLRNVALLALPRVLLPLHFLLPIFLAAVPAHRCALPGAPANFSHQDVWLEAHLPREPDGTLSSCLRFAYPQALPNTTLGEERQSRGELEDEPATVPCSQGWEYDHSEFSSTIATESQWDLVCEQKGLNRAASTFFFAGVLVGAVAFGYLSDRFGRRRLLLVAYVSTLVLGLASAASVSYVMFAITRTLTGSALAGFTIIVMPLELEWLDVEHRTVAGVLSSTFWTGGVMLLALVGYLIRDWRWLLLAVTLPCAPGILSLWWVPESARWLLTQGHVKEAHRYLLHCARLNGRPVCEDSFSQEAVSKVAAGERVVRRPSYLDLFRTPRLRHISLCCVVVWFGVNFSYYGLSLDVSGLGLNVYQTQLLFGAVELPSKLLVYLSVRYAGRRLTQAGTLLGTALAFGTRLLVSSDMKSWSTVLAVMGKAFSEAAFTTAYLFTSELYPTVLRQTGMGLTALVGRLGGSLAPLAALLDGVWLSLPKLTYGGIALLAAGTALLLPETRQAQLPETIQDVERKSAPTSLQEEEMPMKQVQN

[2] = molecular target: T1, human OAT2 (organic anion transporter 2); details: 500 μM inhibitor, 10 μM cGMP, 5 min, 37°C, pH 7.4
[3] = molecular target: T1, human OAT2 (organic anion transporter 2); details: read-out: % inhibition at 500 μM

Compound | % inhibition at 500 μM [2] | also measured
CCCCNc1cc(C(=O)O)cc(S(N)(=O)=O)c1Oc1ccccc1 [bumetanide] |  | IC50 [1]: 130 ± 21.8 µM
CCOC(=O)[C@H](CCc1ccccc1)N[C@@H](C)C(=O)N1CCC[C@H]1C(=O)O [enalapril] | weak inhibition of OAT2-mediated cGMP uptake by high concentrations of sitagliptin and enalapril | 
COc1cc(CC(=O)O)ccc1O [homovanillic acid] | significantly decreased in the presence of the dopamine metabolite homovanillate | 
COc1ccc2c(c1)c(CC(=O)O)c(C)n2C(=O)c1ccc(Cl)cc1 [indomethacin] | OAT2 transport function was abolished by indomethacin | 
N[C@@H](CC(=O)N1CCn2c(nnc2C(F)(F)F)C1)Cc1cc(F)c(F)cc1F [sitagliptin] |  | inhibition at 500 µM [3]: ~25%
